Experimental data published in patent publication US6770738B1, “Higher order structure and binding of peptide nucleic acids” (ISIS Pharmaceuticals, Inc., priority 1992, dated 2004).

System: A98/T98 insert of pA98 plasmid
Assay: Electron microscopy of PNA-DNA complex
Type: binding
Protocol: A pA98 plasmid containing an A98/T98 (SEQ ID NO:42) insert in the PstI site of the polylinker of a pUC 19 plasmid was used. 0.1 μg of the pA98 plasmid linearized by the Cfr1OI I restriction enzyme was incubated with 0.15 μg of PNA H-T10-LysNH2 (SEQ ID NO:2) at 37 °C. for 3 hours in 10 μL of the TE buffer (10 mM of Tris-HCl, 1 mM of Na3EDTA, pH 8.0). The complex was diluted with buffer containing 10 mM of Tris-HCl, 10 mM of NaCl, pH 7.5 to the final DNA concentration of 0.2-0.5 μg/mL and absorbed to the surface of glow discharged in tripropylamine carbon grid for 2 minutes as described in Duochet, J., Ultrastruct. Res., 1971 35, 147-167. The grid was stained in 0.1-0.5 % water solution of uranyl acetate for 10-15 sec and dried. The sample was shadowed with Pt/C (95/5) and studied in a Philips 400 electron microscope at accelerating voltage of 40 kV. The length of the DNA molecules were measured and a histogram was plotted as described by A. V. Kurakin in Micron Microscopica Acta, 22,213-221 (1991). The length of unwound region was measured by its thicker strand, for which the number of base pairs per unit length was assumed to be the same as for the DNA duplex. For analysis by use of a histogram, the molecules were oriented in such a manner that the left boundary of the loop was closer to the end of the molecule.

H-T10LysNH2 [PNA H-T10-LysNH2]
strand displacement loop at full occupancy of the target: 90-100 bases | average size of the loop (standard error 17 bp): 114 bp
